Assays:
[1] = Drug absorbed in vivo after oral dose (Wagner-Nelson equation); conditions: rat, 30 mg/kg, at Cmax
From the text: A model based on the Wagner-Nelson (W-N) equation was established in-house and was used to calculate the drug absorbed to further assess the amount of drug absorbed as a function of time. The utilization of the W-N equation allows us to obtain all the drug that is absorbed (including excreted) at different time points. This allowed us to estimate the relationship and the impact on the absorption on the surface area changes of the drug. [drawing 2] [drawing 3]
where A is the drug absorbed, V is the volume of distribution, Cp is the plasma concentration, K is the elimination rate constant, and t is time.
In order to understand the degree of improvement provided by an oral nanosuspension formulation, simulations were performed using a Wagner-Nelson equation-based model that was established in-house in order to assess the amount of drug absorbed (dA) as a function of time. In this model, the stomach empting time was taking into consideration. […] The unit surface area by weight (A/W) was calculated to estimate the surface area reduction after the absorption took place, and the total residual surface area (RA) was calculated for each time point. The absorption efficiency (AE) was calculated by taking the ratio of the amount of drug available and was divided by the RA (AE = W/RA), and the absorption constant (K) was calculated as AE/δT. […]

[2] = design: method as in earlier work; conditions: oral, 1 compartment, first-order elimination ref 15; cited from earlier work
[3] = design: method as in printed; conditions: ref not given; cited from earlier work
[4] = system: human vascular smooth muscle (VSM) cell; design: method as in PMID 11090543, PMID 11842228; conditions: cited from earlier work
[5] = system: spontaneously hypertensive rats; design: method as in printed; conditions: reported, ref not given; cited from earlier work

O=C(NC1CCCCC1)NC1CCCCC1 [DCU, 1,3-Dicyclohexylurea]
Drug absorbed, In vivo (Wagner-Nelson equation) [1]: 1.1 mg | K01 (absorption rate constant) [2]: 26.3 h⁻¹ | K10 (elimination rate constant) [2]: 0.277 h⁻¹ | Vf [2]: 5.8 L | free fraction in plasma (unbound) [3]: 3% | human VSM cell proliferation [4]: inhibits human vascular smooth muscle (VSM) cell proliferation in a dose-dependent manner | effect on systemic blood pressure [5]: lower systemic blood pressure

— paper PMC3211509 (Nanoscale Research Letters, 2011)
